Test results reported in patent publication US20230047825A1, “ANTIMICROBIAL PEPTIDES” (priority 2019, published 2023).
In brackets after ≈: the same amount, converted by molar mass. Read-outs that look alike come from different tables or passages of the source. Marks after values point to notes of the source that are not given here. Where a SMILES comes first, the peptide text is derived from it.

Columns and labels:
[1] = test system: Pseudomonas aeruginosa PA01; assay: Antibacterial activity assay (broth microdilution MIC); format: cell-based; details: for MIC, Stability in serum (MH) / MIC on initial panels: in µg/mL; for MIC on initial panels: medium and unit not given
[2] = test system: Pseudomonas aeruginosa NCTC 13437; assay: as above; format: cell-based; details: PA13437, in µg/mL; for MIC on initial panels: medium and unit not given
[3] = test system: MS Staphylococcus aureus ATCC 9144; format: cell-based; details: for MIC on initial panels / MIC: MSSA9144; for MIC on initial panels: medium and unit inferred; for MIC: untitled table, medium/unit not given, values match RPMI of Table 2, in µg/mL; for MIC, Peptide concentration: ATCC 9144
[4] = test system: EMR Staphylococcus aureus-15 (EMRSA-15); format: cell-based; details: for MIC on initial panels / MIC: EMRSA15; for MIC on initial panels: medium and unit inferred; for MIC: untitled table, medium/unit inferred, values match RPMI of Table 2
[5] = test system: VR Enterococcus faecium NCTC 12204; assay: Antibacterial activity assay (broth microdilution MIC); format: cell-based; details: VRE12204, in µg/mL; for MIC on initial panels: medium and unit not given; for MIC: untitled table, medium/unit not given, values match RPMI of Table 2
P. aeruginosa RP73 = assay: as above; format: cell-based, Pseudomonas aeruginosa; details: in µg/mL
Description: Antibacterial activity assay.
Synergy experiments were performed following a checkerboard protocol.

HEK293 = assay: Cytotoxicity assay (XTT); format: cell-based, human; details: for Toxicity HEK293: unit not given; for Toxicity HEK293 (EC50), Peptide concentration: value printed in parentheses
Description: Cytotoxicity assay. HeLa and HEK293 cell lines were purchased from ECACC and cultured in Eagle's Minimum Essential Media (EMEM) containing glutamine, supplemented with 10% FBS and 1× non-essential amino acids (NEAA) at 37° C., 10% CO2. Cytotoxicity was measured by incubating starter cultures of cells for 24 hours in a 96 well plate, gently removing the supernatant and replacing it with dilutions of peptides and controls, incubating for a further 24 hours and then staining of the cells with the second generation tetrazolium dye, XTT. […]

A549 = assay: Cytotoxicity assay; format: cell-based; details: value printed in parentheses
Calu-3 = assay: Cytotoxicity assay; format: cell-based; details: value printed in parentheses
[6] = untitled table, medium/unit inferred, values match RPMI of Table 2
[7] = untitled table, medium/unit not given, values match RPMI of Table 2

| SMILES | MIC ([1]; (MH)) | MIC ([1]; (RPMI)) | MIC, Stability in serum (MH) ([1]; No serum) | MIC, Stability in serum (MH) ([1]; Serum (10% fetal bovine serum)) | MIC on initial panels [1] | MIC [1, 6] | MIC ([2]; (MH)) | MIC ([2]; (RPMI)) | MIC, Stability in serum (MH) ([2]; No serum) | MIC, Stability in serum (MH) ([2]; Serum (10% fetal bovine serum)) | MIC on initial panels [2] | MIC [2, 7] | MIC on initial panels [3] | MIC [3] | MIC on initial panels [4] | MIC [4] | MIC on initial panels [5] | MIC [5] | Toxicity HEK293 (HEK293) | Toxicity HEK293 (EC50), Peptide concentration (HEK293) | also measured |
| --- | --- | --- | --- | --- | --- | --- | --- | --- | --- | --- | --- | --- | --- | --- | --- | --- | --- | --- | --- | --- | --- |
| CC(C)C[C@@H](NC(=O)[C@@H](Cc1ccc(O)cc1)NC(=O)[C@@H](Cc1c[nH]cn1)NC(=O)[C@H](NC(=O)[C@@H](CC(C)C)NC(=O)[C@@H](C)NC(=O)[C@@H](C)NC(=O)[C@@H](CCCCN)NC(=O)CNC(=O)[C@H](NC(=O)[C@@H](Cc1c[nH]cn1)NC(=O)[C@@H](CCCCN)NC(=O)CNC(=O)[C@H](NC(=O)[C@@H](Cc1c[nH]cn1)NC(=O)[C@@H](C)NC(=O)[C@@H](C)NC(=O)[C@@H](CCCCN)NC(=O)[C@@H](CCCCN)NC(=O)[C@@H](Cc1ccccc1)NC(=O)[C@@H](Cc1ccccc1)NC(=O)[C@@H](CO)NC(=O)CNC(=O)[C@@H](Cc1c[nH]c2ccccc12)NC(=O)CN)C(C)C)C(C)C)[C@H](C)O)C(N)=O [D-pleurocidin] (HELM PEPTIDE1{G.[dW].G.[dS].[dF].[dF].[dK].[dK].[dA].[dA].[dH].[dV].G.[dK].[dH].[dV].G.[dK].[dA].[dA].[dL].[dT].[dH].[dY].[dL].[am]}$$$$V2.0; N-terminus assumed) | 2 µg/mL (≈ 0.738 µM) | 16 µg/mL (≈ 5.9 µM) | 2 | 4 | 2 | 16 µg/mL (≈ 5.9 µM) | 8 | 16-32 | 8 | 16 | 8 | 16-32 | 2 µg/mL (≈ 0.738 µM) | 0.5 | 16 µg/mL (≈ 5.9 µM) | 1 µg/mL (≈ 0.369 µM) | 16 | 4 | 61.4 ± 3.9 | (61.4 ± 3.9) μg/ml | MIC, Peptide concentration ([4]; EMR -15 (EMRSA-15)): 1 µg/mL (≈ 0.369 µM); MIC, Peptide concentration ([4]; Mueller-Hinton broth): 16 µg/mL (≈ 5.9 µM); MIC on initial panels (P. aeruginosa RP73; medium and unit not given): 8-16; MIC (P. aeruginosa RP73; untitled table, medium/unit not given): 16-32; Toxicity A549 (EC50), Peptide concentration (A549): (79.3 ± 7.2) μg/ml; Toxicity Calu-3 (EC50), Peptide concentration (Calu-3): (41.9 ± 1.8) μg/ml |
| CC(C)C[C@H](NC(=O)[C@H](Cc1ccc(O)cc1)NC(=O)[C@H](Cc1c[nH]cn1)NC(=O)[C@@H](NC(=O)[C@H](CC(C)C)NC(=O)[C@H](C)NC(=O)[C@H](C)NC(=O)[C@H](CCCCN)NC(=O)CNC(=O)[C@@H](NC(=O)[C@H](Cc1c[nH]cn1)NC(=O)[C@H](CCCCN)NC(=O)CNC(=O)[C@@H](NC(=O)[C@H](Cc1c[nH]cn1)NC(=O)[C@H](C)NC(=O)[C@H](C)NC(=O)[C@H](CCCCN)NC(=O)[C@H](CCCCN)NC(=O)[C@H](Cc1ccccc1)NC(=O)[C@H](Cc1ccccc1)NC(=O)[C@H](CO)NC(=O)CNC(=O)[C@H](Cc1c[nH]c2ccccc12)NC(=O)CN)C(C)C)C(C)C)[C@@H](C)O)C(N)=O [Pleurocidin, reference compound] (H-GWGSFFKKAAHVGKHVGKAALTHYL-NH2; N-terminus assumed) | 64 µg/mL (≈ 23.6 µM) | > 32 µg/mL | 16 | 32 | 64 | > 32 µg/mL | 16-32 | >32 | 16 | 32 | 16-32 | >32 | 4 µg/mL (≈ 1.48 µM) | 2 | 16 µg/mL (≈ 5.9 µM) | 4 µg/mL (≈ 1.48 µM) | 16-32 | 32 | 87.5 ± 11.1 | (87.5 ± 11.1) μg/ml | MIC, Peptide concentration [3]: 2 µg/mL (≈ 0.738 µM) |
| CC(C)C[C@H](NC(=O)[C@H](Cc1ccc(O)cc1)NC(=O)[C@H](Cc1c[nH]cn1)NC(=O)[C@@H](NC(=O)[C@H](CC(C)C)NC(=O)[C@H](C)NC(=O)[C@H](C)NC(=O)[C@H](CCCNC(=N)N)NC(=O)CNC(=O)[C@@H](NC(=O)[C@H](Cc1c[nH]cn1)NC(=O)[C@H](CCCNC(=N)N)NC(=O)CNC(=O)[C@@H](NC(=O)[C@H](Cc1c[nH]cn1)NC(=O)[C@H](C)NC(=O)[C@H](C)NC(=O)[C@H](CCCNC(=N)N)NC(=O)[C@H](CCCNC(=N)N)NC(=O)[C@H](Cc1ccccc1)NC(=O)[C@H](Cc1ccccc1)NC(=O)[C@H](CO)NC(=O)CNC(=O)[C@H](Cc1c[nH]c2ccccc12)NC(=O)CN)C(C)C)C(C)C)[C@@H](C)O)C(N)=O [Pleurocidin-KR] (H-GWGSFFRRAAHVGRHVGRAALTHYL-NH2; N-terminus assumed) |  |  | 4 | >128 | 4 | > 32 µg/mL |  |  | 4 | 32* | 8 | >32 | 2 µg/mL (≈ 0.709 µM) | 4 | 4 µg/mL (≈ 1.42 µM) | 4 µg/mL (≈ 1.42 µM) | 4 | 16 | 40.1 ± 4.1 | (40.1 ± 4.1) μg/ml | MIC, Peptide concentration ([4]; EMR -15 (EMRSA-15)): 4 (4) μg/ml |
| CC(C)C[C@H](NC(=O)[C@H](Cc1ccc(O)cc1)NC(=O)[C@H](Cc1c[nH]cn1)NC(=O)[C@@H](NC(=O)[C@H](CC(C)C)NC(=O)[C@H](C)NC(=O)[C@H](C)NC(=O)[C@H](CCCCN)NC(=O)CNC(=O)[C@H](C)NC(=O)[C@H](Cc1c[nH]cn1)NC(=O)[C@H](CCCCN)NC(=O)CNC(=O)[C@H](C)NC(=O)[C@H](Cc1c[nH]cn1)NC(=O)[C@H](C)NC(=O)[C@H](C)NC(=O)[C@H](CCCCN)NC(=O)[C@H](CCCCN)NC(=O)[C@H](Cc1ccccc1)NC(=O)[C@H](Cc1ccccc1)NC(=O)[C@H](CO)NC(=O)CNC(=O)[C@H](Cc1c[nH]c2ccccc12)NC(=O)CN)[C@@H](C)O)C(N)=O [Pleurocidin-VA] (H-GWGSFFKKAAHAGKHAGKAALTHYL-NH2; N-terminus assumed) |  |  | 16* | >128 | 16-32 | > 32 µg/mL |  |  | 16* | >128 | 32 | >32 | 8 µg/mL (≈ 3.01 µM) | 32 | 64 µg/mL (≈ 24.1 µM) | 32 µg/mL (≈ 12.1 µM) | 32-64 | 32 | ~400 | (~400) μg/ml | MIC, Peptide concentration [3]: 8 µg/mL (≈ 3.01 µM) |
